The record followed here is patent US20260102501A1, “ANTI-CANCER NUCLEAR HORMONE RECEPTOR-TARGETING COMPOUNDS” (Nuvation Bio Inc., priority 2022, published 2026).

One assay relates to LNCap cells. As to the kind of experiment: Cell viability assay (CellTiterGlo). The assay is classed as cell-based. The conditions noted are these: Homo sapiens, 144 h. (ATP-based viability assays read luminescence as a measure of living cells.)
Assay [1] deals with T1, GR (cytosol from IM-9 cells) (Homo sapiens, UniProt P04150).
T1 sequence (P04150 1-777): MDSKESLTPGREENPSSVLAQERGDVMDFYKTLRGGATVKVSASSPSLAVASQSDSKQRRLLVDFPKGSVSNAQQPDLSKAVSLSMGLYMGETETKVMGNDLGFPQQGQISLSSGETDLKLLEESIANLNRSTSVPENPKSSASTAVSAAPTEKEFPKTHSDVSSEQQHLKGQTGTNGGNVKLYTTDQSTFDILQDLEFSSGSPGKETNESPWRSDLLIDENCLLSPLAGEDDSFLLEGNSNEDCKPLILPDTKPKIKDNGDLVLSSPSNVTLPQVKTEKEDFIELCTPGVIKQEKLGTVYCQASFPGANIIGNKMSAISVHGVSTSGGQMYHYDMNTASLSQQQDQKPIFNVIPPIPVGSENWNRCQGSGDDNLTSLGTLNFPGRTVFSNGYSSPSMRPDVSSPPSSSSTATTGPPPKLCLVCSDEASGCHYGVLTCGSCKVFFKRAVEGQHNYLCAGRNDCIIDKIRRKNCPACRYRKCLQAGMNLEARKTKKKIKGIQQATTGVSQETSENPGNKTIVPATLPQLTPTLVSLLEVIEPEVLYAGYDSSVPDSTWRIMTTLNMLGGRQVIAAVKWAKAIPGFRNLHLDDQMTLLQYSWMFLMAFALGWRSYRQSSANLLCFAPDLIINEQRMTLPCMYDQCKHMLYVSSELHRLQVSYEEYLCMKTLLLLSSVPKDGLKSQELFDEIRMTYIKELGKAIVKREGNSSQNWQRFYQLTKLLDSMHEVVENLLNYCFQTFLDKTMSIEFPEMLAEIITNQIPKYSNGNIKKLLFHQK
As to the kind of experiment: GR binding assay (3H-Dexamethasone displacement).

Assay [2] deals with T2, AR (cytosol from LnCaP cells) (Homo sapiens, UniProt P10275, T878A).
T2 sequence (P10275 1-920 T878A): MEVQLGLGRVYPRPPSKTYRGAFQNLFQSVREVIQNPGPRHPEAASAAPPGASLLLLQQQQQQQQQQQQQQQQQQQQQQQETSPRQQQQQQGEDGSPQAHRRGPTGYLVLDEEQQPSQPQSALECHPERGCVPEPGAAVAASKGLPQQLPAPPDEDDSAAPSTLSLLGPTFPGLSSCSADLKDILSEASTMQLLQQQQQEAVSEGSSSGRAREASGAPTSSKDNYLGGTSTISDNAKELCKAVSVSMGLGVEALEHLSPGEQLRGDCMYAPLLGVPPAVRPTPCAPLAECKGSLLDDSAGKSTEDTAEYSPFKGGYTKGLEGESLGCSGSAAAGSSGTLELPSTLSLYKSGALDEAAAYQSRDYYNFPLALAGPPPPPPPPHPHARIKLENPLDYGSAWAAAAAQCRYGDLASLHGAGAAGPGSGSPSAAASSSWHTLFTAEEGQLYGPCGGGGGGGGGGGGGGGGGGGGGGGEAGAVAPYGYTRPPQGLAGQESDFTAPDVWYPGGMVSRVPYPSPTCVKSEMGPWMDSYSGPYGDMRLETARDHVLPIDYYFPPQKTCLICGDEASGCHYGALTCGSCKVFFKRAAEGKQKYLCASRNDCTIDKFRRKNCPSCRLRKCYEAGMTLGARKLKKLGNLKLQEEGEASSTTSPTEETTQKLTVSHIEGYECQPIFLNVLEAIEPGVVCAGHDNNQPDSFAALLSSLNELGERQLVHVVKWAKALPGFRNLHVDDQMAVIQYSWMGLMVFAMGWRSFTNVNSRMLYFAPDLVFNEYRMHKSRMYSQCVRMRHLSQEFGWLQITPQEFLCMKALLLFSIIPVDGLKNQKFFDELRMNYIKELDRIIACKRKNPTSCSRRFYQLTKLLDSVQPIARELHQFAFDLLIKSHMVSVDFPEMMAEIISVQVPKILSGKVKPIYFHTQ
As to the kind of experiment: AR binding assay (3H-R1881 displacement).
Experimental: The plate was then centrifuged at 3000 rpm for 30 minutes at 4° C.

The target in assay [3] is T3, ligand binding domain of the glucocorticoid receptor (HEK293 cells stably expressing) (Homo sapiens, UniProt P04150).
T3 sequence (P04150 524-758 limits assumed): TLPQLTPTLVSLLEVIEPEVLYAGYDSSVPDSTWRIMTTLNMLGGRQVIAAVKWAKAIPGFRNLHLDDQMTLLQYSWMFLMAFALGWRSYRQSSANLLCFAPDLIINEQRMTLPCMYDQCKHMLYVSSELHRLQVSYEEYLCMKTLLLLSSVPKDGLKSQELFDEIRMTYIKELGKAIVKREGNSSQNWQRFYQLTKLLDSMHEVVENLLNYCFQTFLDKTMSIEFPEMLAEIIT
As to the kind of experiment: GR antagonism assay (luciferase reporter).

[4] abbreviates: 6 days incubation, CellTiterGlo, read-out: LNCap (IC50).

A word on the IC50: it is the concentration that gives 50% inhibition.

Counter-ions that a name gives are not always drawn. Like-named read-outs stand apart in the source and are kept apart here. Numbered stars: 1 amine (or outer) side, 2 acyl side, 3 side chain; on linkers, the order of the positions; unused ones are H or OH. Square brackets hold non-standard residues; d marks the D form. Peptide text beside a SMILES is read from it. * marks the point of attachment. X1 = CC(=O)O[C@]1(C(C)=O)CC[C@H]2[C@@H]3CCC4=CC(=O)CCC4=C3[C@@H](c3ccc(*)cc3)C[C@@]21C; Exatecan = CC[C@@]1(O)C(=O)OCc2c1cc1n(c2=O)Cc2c-1nc1cc(F)c(C)c3c1c2[C@@H](N*)CC3; NHCH2OCH2CO = O=C(COCN[*:1])[*:2]; Sar = CNCC(=O)O

Consider `CC[C@@]1(O)C(=O)OCc2c1cc1n(c2=O)Cc2cc3c(CN(C)C)c(OC(=O)N4CCN(CC5CCN(c6ccc(C(=O)N[C@H]7CC[C@H](Oc8ccc(C#N)c(Cl)c8C)CC7)nn6)CC5)CC4)ccc3nc2-1` [Compound 31, (S)-10-((Dimethylamino)methyl)-4-ethyl-4-hydroxy-3,14-dioxo-3,4,12,14-tetrahydro-1H-pyrano[3′,4′:6,7]indolizino[1,2-b]quinolin-9-yl 4-((1-(6-(((1r,4r)-4-(3-chloro-4-cyano-2-methylphenoxy)cyclohexyl)carbamoyl)pyridazin-3-yl)piperidin-4-yl)methyl)piperazine-1-carboxylate Formate], for which the IC50 with LNCap cells (read-out: LNCap (IC50, nM)) was 10 to 100 nM; in assay [1] it was greater than 1000 nM; in assay [2], less than 10 nM; in assay [3] it was greater than 1000 nM.
As to `CC[C@@]1(O)C(=O)OCc2c1cc1n(c2=O)Cc2cc3c(CN4CCN(C(=O)C5CCN(c6ccc(C(=O)N[C@H]7CC[C@H](Oc8ccc(C#N)c(Cl)c8C)CC7)nn6)CC5)CC4)c(OC(=O)N4C[C@H](C)N(C)C[C@H]4C)ccc3nc2-1` [Compound 30, (S)-10-((4-(1-(6-(((1r,4r)-4-(3-Chloro-4-cyano-2-methylphenoxy)cyclohexyl)carbamoyl)-pyridazin-3-yl)piperidine-4-carbonyl)piperazin-1-yl)methyl)-4-ethyl-4-hydroxy-3,14-dioxo-3,4,12,14-tetrahydro-1H-pyrano[3′,4′:6,7]indolizino[1,2-b]quinolin-9-yl (2R,5S)-2,4,5-trimethylpiperazine-1-carboxylate Formate], the IC50 is 10 to 100 nM in the assay with LNCap cells (read-out: LNCap (IC50, nM)); greater than 1000 nM in assay [1]; less than 10 nM in assay [2]; greater than 1000 nM in assay [3].
For the compound `CC[C@@]1(O)C(=O)OCc2c1cc1n(c2=O)Cc2cc3c(CN4CCN(CCCCCCN(C)c5ccc([C@H]6C[C@@]7(C)[C@@H](CC[C@]7(OC(C)=O)C(C)=O)[C@@H]7CCC8=CC(=O)CCC8=C76)cc5)CC4)c(O)ccc3nc2-1` [Compound 36, (8S,11R,13S,14S,17R)-17-acetyl-11-(4-((6-(4-(((S)-4-ethyl-4,9-dihydroxy-3,14-dioxo-3,4,12,14-tetrahydro-1H-pyrano[3′,4′:6,7]indolizino[1,2-b]quinolin-10-yl)methyl)piperazin-1-yl)hexyl)(methyl)amino)phenyl)-13-methyl-3-oxo-2,3,6,7,8,11,12,13,14,15,16,17-dodecahydro-1H-cyclopenta[a]phenanthren-17-yl acetate], the IC50 was 10 to 100 nM with LNCap cells (setting [4]), 101 to 1000 nM in assay [1], 10 to 100 nM in assay [2] and less than 10 nM in assay [3].
Regarding `CC[C@@]1(O)C(=O)OCc2c1cc1n(c2=O)Cc2c-1nc1cc(F)c(C)c3c1c2[C@@H](NC(=O)COCCCCCCN(C)c1ccc([C@H]2C[C@@]4(C)[C@@H](CC[C@]4(OC(C)=O)C(C)=O)[C@@H]4CCC5=CC(=O)CCC5=C42)cc1)CC3` [Compound No. 47, (8S,11R,13S,14S,17R)-17-acetyl-11-(4-((6-(2-(((1S,9S)-9-ethyl-5-fluoro-9-hydroxy-4-methyl-10,13-dioxo-2,3,9,10,13,15-hexahydro-1H,12H-benzo[de]pyrano [3′,4′:6,7]indolizino[1,2-b]quinolin-1-yl)amino)-2-oxoethoxy)hexyl)(methyl)amino)phenyl)-13-methyl-3-oxo-2,3,6,7,8,11,12,13,14,15,16,17-dodecahydro-1H-cyclopenta[a]phenanthren-17-yl acetate], the IC50 is 10 to 100 nM in the assay on LNCap cells (setting [4]), less than 10 nM in assay [1], 10 to 100 nM in assay [2] and 101 to 1000 nM in assay [3].
Consider `CC[C@@]1(O)C(=O)OCc2c1cc1n(c2=O)Cc2c-1nc1cc(F)c(C)c3c1c2[C@@H](NC(=O)COCNC(=O)CNC(=O)[C@H](Cc1ccccc1)NC(=O)CNC(=O)CN(C)c1ccc([C@H]2C[C@@]4(C)[C@@H](CC[C@]4(OC(C)=O)C(C)=O)[C@@H]4CCC5=CC(=O)CCC5=C42)cc1)CC3` [Compound 34, (8S,11R,13S,14S,17R)-17-Acetyl-11-(4-(((S)-10-benzyl-1-(((1S,9S)-9-ethyl-5-fluoro-9-hydroxy-4-methyl-10,13-dioxo-2,3,9,10,13,15-hexahydro-1H,12H-benzo[de]pyrano[3′,4′:6,7]indolizino[1,2-b]quinolin-1-yl)amino)-1,6,9, 12,15-pentaoxo-3-oxa-5,8,11,14-tetraazahexadecan-16-yl)(methyl)amino)phenyl)-13-methyl-3-oxo-2,3,6,7,8,11,12,13,14,15,16,17-dodecahydro-1H-cyclopenta[a]phenanthren-17-yl Acetate] (X1-[Sar]GFG[NHCH2OCH2CO]-Exatecan), for which the results for the IC50 in assay [1], in assay [2] and in assay [3] were less than 10 nM, 10 to 100 nM and 101 to 1000 nM, respectively.
Take `CC[C@@]1(O)C(=O)OCc2c1cc1n(c2=O)Cc2cc3c(CN(C)C)c(OCC4CCN(C(=O)CN(C)c5ccc([C@H]6C[C@@]7(C)[C@@H](CC[C@]7(OC(C)=O)C(C)=O)[C@@H]7CCC8=CC(=O)CCC8=C76)cc5)CC4)ccc3nc2-1` [Compound No. 19, (8S,11R,13S,14S,17R)-17-Acetyl-11-(4-((2-(4-((((S)-10-((dimethylamino)methyl)-4-ethyl-4-hydroxy-3,14-dioxo-3,4,12,14-tetrahydro-1H-pyrano[3′,4′:6,7]indolizino[1,2-b]quinolin-9-yl)oxy)methyl)-piperidin-1-yl)-2-oxoethyl)(methyl)amino)phenyl)-13-methyl-3-oxo-2,3,6,7,8,11,12,13,14,15,16,17-dodeca-hydro-1H-cyclopenta[a]phenanthren-17-yl acetate]: the IC50 in the assay with LNCap cells (setting [4]) is 101 to 1000 nM; in assay [1], less than 10 nM; in assay [2] it was 10 to 100 nM; in assay [3], 10 to 100 nM.
Turning to `CC[C@@]1(O)C(=O)OCc2c1cc1n(c2=O)Cc2c-1nc1cc(F)c(C)c3c1c2[C@@H](NCC1CCN(CC2CCN(C(=O)CN(C)c4ccc([C@H]5C[C@@]6(C)[C@@H](CC[C@]6(OC(C)=O)C(C)=O)[C@@H]6CCC7=CC(=O)CCC7=C65)cc4)CC2)CC1)CC3` [Compound No. 51, (8S,11R,13S,14S,17R)-17-acetyl-11-(4-((2-(4-((4-((((1S,9S)-9-ethyl-5-fluoro-9-hydroxy-4-methyl-10,13-dioxo-2,3,9,10,13,15-hexahydro-1H,12H-benzo[de]pyrano[3′,4′:6,7]indolizino[1,2-b]quinolin-1-yl)amino)methyl)piperidin-1-yl)methyl)piperidin-1-yl)-2-oxoethyl)(methyl)amino)phenyl)-13-methyl-3-oxo-2,3,6,7,8,11,12,13,14,15,16,17-dodecahydro-1H-cyclopenta[a]phenanthren-17-yl acetate], the IC50 is 10 to 100 nM in the assay with LNCap cells (setting [4]), 10 to 100 nM in assay [1], less than 10 nM in assay [2] and 10 to 100 nM in assay [3].
